For data set [1], the system named is sunburns. To be noted: cited from earlier work; for SPF equivalent: topical application, background section, no trial described.
Data set [2] concerns sunburns. In words: ability to prevent sunburns (SPF equivalent) after topical application. It is filed as in vivo, human. An excerpt:
Each of the three vitamins A, C and E, and complexes thereof, when topically applied individually at therapeutic levels, markedly increases the ability of the skin to absorb free radicals. Each vitamin molecule, as a measurement of this effect, adds the ability to absorb 2 MEDs (minimal erythema dose) of energy or a total of 6 MEDS if all three vitamins are present simultaneously. […] SPF (Sun Protection Factor) is a recognized measure of ultraviolet screen ability. Simultaneous application of a tri-vitamin regimen of vitamins A, C and E can result in an SPF equivalent of 24. Use of the three vitamins together in effective amounts results in enhanced protection of the skin against sunburn and, unlike sunscreens per se, persists in effect until the molecules are consumed by the body. […] The enhancement of photo protection by the tri-vitamin therapy according to the invention is particularly important as a solar spectrum (UVA, UVB) sun protectant. The effects of simultaneous use of the tri-vitamin regime and sunscreens are additive.
One measure of the activity has been to assess the ability to prevent sunburns.

The subject of data set [3] is sunburns. Kind of data set: Example 4: UVB sunburn study in 34 volunteers, test compounds applied before or after 1 or 3 MEDs of UVB. It is filed as in vivo, human. The settings on record: for prevention of the development of sunburns: applied daily for 3 days before 1 or 3 MEDs of UVB; for treatment of the induced sunburns, review of the data of the left side: left side of the back. As to the method:
In a study conducted by a practicing dermatologist, after informed consent, 34 volunteers were treated in the following manner. On the left side of the back, one inch squares were marked and treated daily for 3 days with 12 test compounds including a control of vehicle and a commercial identified sunscreen. After determining the MED (minimal erythema dose) for each subject, each subject was treated with one or 3 MEDs of UVB on both sides of the back. On the right side, 18 test compounds were applied including a vehicle control post sunburn at 0 hours, 8 hours, 24 and 48 hours. Measurements of the severity of the burns were recorded as the end point at 8, 24 and 48 hours.

In a further data set the test system is photo aging. Kind of data set: open label proof of concept trials over 5 years in 300 patients, reversal of photo aging. It is filed as in vivo, human. An excerpt: Animal models have an inherent limitation and are not necessarily directly applicable to humans. For example, various mammalian species have different metabolic characteristics. In particularly, most animals have the capacity to manufacture their own vitamin C.
Indeed, the studies appear to indicate a synergetic effect between vitamins C and E in the morning, and vitamins A and E in the evening.

In another data set the test system is photo ageing. Kind of data set: Example 2: side effects in patients treated for photo ageing, topical tretinoin versus formulations of the invention. It is filed as in vivo, human. An excerpt: In a trial conducted by a practicing dermatologist, involving 267 patients undergoing treatment for photo ageing using slowly increasing strengths of topical tretinoin, side effects were frequent and prolonged. An average of 3.7 reactions sufficiently severe to cause discontinuation of therapy were experienced and each reaction required discontinuation of treatment for an average of 7.7 days. Only 14% of patients were able to be treated without side effects at the commercially available strength of 0.1% tretinoin. […] The side effects were mild and were ameliorated by re-introducing the regime as alternate day treatment in the areas of irritation. Only 1.5% of patients were unable to tolerate the regime.

Data on five compounds can be found in US20080057138A1, “RESTORATIVE SKIN CREAM” (Telford Holdings Ltd., priority 2006, published 2008).

Regarding `O=C1O[C@H]([C@@H](O)CO)C(O)=C1O` [vitamin C, L-ascorbic acid], in the data set with sunburns [1] (following a single application), the persistence of photoprotection entry is “at least 4 days”. Besides, in the data set with sunburns [2], the effect on sunburn entry is given as “effective in reducing sunburns”. Moreover, in the data set on sunburns [3], the “prevention of the development of sunburns” value is “able to prevent the development of sunburns” and the “treatment of the induced sunburns, review of the data of the left side” value was “significant visible improvement”.

`Cc1c(C)c2c(c(C)c1O)CC[C@@](C)(CCC[C@H](C)CCC[C@H](C)CCCC(C)C)O2` [vitamin E, α-tocopherol]: in the data set with photo aging (topical), the “clinical effect on photo aging” value is reported as “enhance reversal of photo aging”. Also, the effect on sunburn result with sunburns [2] was “significantly ameliorated the signs and symptoms of sunburn”. Moreover, in the data set with sunburns [3], the “prevention of the development of sunburns” value is given as “able to prevent the development of sunburns” and the “treatment of the induced sunburns, review of the data of the left side” value is given as “significant visible improvement”. In the data set with sunburns [3] (applied post sunburn), the treatment of sunburns entry is given as “statistically visible significant treatment benefit”.

Consider `CC1=C(/C=C/C(C)=C/C=C/C(C)=C/C(=O)O)C(C)(C)CCC1` [tretinoin, all-trans retinoic acid], for which, in the data set with photo ageing (267 patients), the “average discontinuation of treatment per reaction” value is 7.7 days. The “average reactions sufficiently severe to cause discontinuation of therapy” value in the data set on photo ageing (267 patients, slowly increasing strengths) was determined as 3.7. The “patients able to be treated without side effects” value in the data set with photo ageing (at commercially available strength of 0.1%) is recorded as 14%.

For the compound `CCCCCCCCCCCCCCCC(=O)OC/C=C(C)/C=C/C=C(C)/C=C/C1=C(C)CCCC1(C)C` [vitamin A palmitate, retinyl palmitate], in the data set on photo aging (compared with topical tretinoin), the frequency of irritation entry is “markedly reduced frequency of irritation”. Also, the SPF equivalent in the data set with sunburns [1] is recorded as 20.

Turning to `CC1=C(/C=C/C(C)=C/C=C/C(C)=C/CO)C(C)(C)CCC1` [retinol], the SPF equivalent in the data set on sunburns [1] is given as 20.
